The text below walks through data of patent US20230212180A1, “SUBSTITUTED PYRAZINE COMPOUND, PHARMACEUTICAL COMPOSITION COMPRISING SAME, AND USE THEREOF” (Sichuan Kelun-Biotech Biopharmaceutical Co., Ltd., priority 2020, published 2023).

The subject of experiment [1] is KYSE-520 cell (human esophageal squamous cell carcinoma cell). As to the kind of experiment: Inhibition of the proliferation activity of KYSE-520 cell (CellTiter-Glo). It is filed as cell-based. To be noted: 120 h, KYSE-520 cell proliferation, 5 days. As for the experimental part:
Test Example 2: Experiment on the Inhibition of the Proliferation Activity of KYSE-520 Cell (Human Esophageal Squamous Cell Carcinoma Cell)
cell: KYSE-520 (JCRB Cell Bank);
kit: CellTiter-Glo® Luminescent Cell Viability Assay Kit (Promega).
inoculation amount of cell: 1500 cells/well;
incubation conditions for compound: 37° C., 5% CO2;
incubation duration: 5 days;
detecting temperature: room temperature;
chemiluminescence detection using the BMG PHERAstar FS reader.
Cells were cultured in a medium containing 10% fetal bovine serum under the culture conditions of 37° C. and 5% CO2. An appropriate amount of cells were plated into a 96-well plate and cultured overnight in an incubator to allow the cells to adhere to the wall. The following day, the medium was removed and a complete medium containing a pre-diluted compound was added and incubated at 37° C. for 5 days. On the fifth day, the detection reagent CellTiter-Glo® was added into each well. Chemiluminescence was adopted to detect the relative luminescence units (RLUs) of the wells.
The result of a well containing cell-free medium, treated with CellTiter-Glo®, was obtained as the blank value. Cell viability (%)=(sample RLU−blank RLU)/(vehicle RLU−blank RLU)×100%, and maximum inhibition rate (%)=100%−cell viabilitymax. conc. (%). The half maximal inhibitory concentration (IC50) of the compound was calculated by fitting the curve according to the four-parameter logistic model.
A general note: Cellular ATP, detected with luciferase, serves as a proxy for viable cell number.

Experiment [2] concerns the target T1, hERG (Homo sapiens, UniProt Q12809).
T1 construct: purchased ThermoFisher
The experiment in a line: Biochemical assay for hERG inhibition (Predictor hERG Fluorescence Polarization Assay Kit). It is filed as binding. As for the experimental part:
Test Example 3: Biochemical Assay for hERG Inhibition
kit: Predictor™ hERG Fluorescence Polarization Assay Kit (ThermoFisher) containing:
Compound E4031 as a positive control;
tracer concentration: 1 nM;
incubation duration: 2 hours;
parameters for microplate reader: BMG PHERAstar FS fluorescence microplate reader.
Test group: The test compounds at different concentrations were added into a microplate containing hERG cell membrane, and the tracer with a high affinity for hERG was then added into each well. The microplate was incubated at 25° C. for 2 hours before detection of the change in fluorescence polarization value (mP) (excitation wavelength: 540 nm; emission wavelength: 590 nm) using a multi-mode microplate reader.
Positive control group: The experimental method for the positive control group was the same as that for the test group, except that the test compound was replaced with 30 μM Compound E4031.
Blank control group: The experimental method for the blank control group was the same as that for the test group, except that the test compound was replaced with the hERG buffer and that the hERG cell membrane was not added.
Based on the data ratios, the percentage inhibition (%) of the compounds of the present disclosure against hERG at different concentrations was calculated and the range of the half maximal inhibitory concentration (IC50) of the compounds was determined. Percentage inhibition (%)=(1−(mP of the test compound−mP of the positive control group)/(mP of the blank control group−mP of the positive control group))×100%.

In experiment [3] the target is T2, recombinant full-length human PTPN11 (SHP2) (Homo sapiens, UniProt Q06124).
T2 construct: recombinant full-length human PTPN11 (SHP2), active (SignalChem); purchased SignalChem
T2 sequence (Q06124 1-593): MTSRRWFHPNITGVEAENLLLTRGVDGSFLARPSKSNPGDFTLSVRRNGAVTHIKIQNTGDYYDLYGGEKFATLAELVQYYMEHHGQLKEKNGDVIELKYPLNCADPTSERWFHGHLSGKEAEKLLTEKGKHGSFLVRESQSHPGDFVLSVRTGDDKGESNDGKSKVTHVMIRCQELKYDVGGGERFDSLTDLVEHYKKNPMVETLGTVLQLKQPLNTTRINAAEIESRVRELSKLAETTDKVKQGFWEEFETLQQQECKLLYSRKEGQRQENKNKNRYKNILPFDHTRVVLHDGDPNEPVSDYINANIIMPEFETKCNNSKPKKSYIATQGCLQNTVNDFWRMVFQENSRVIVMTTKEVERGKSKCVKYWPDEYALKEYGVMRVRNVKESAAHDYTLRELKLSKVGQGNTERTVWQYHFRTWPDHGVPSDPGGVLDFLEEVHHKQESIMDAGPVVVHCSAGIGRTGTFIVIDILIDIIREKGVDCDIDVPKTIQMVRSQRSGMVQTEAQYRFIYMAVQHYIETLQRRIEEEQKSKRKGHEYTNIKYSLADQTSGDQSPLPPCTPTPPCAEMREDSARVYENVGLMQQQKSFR
As to the kind of experiment: Inhibition of in vitro enzyme activity of SHP2 (DiFMUP fluorescence endpoint assay). It is filed as biochemical. To be noted: SHP2 0.5 nM, DiFMUP 200 μM, IRS-1 0.5 μM; 60 min incubation. The protocol:
Test Example 1: Experiment on the Inhibition of In Vitro Enzyme Activity of SHP2 (Protein Phosphatase)
phosphatase: recombinant full-length human PTPN11 (SHP2), active (SignalChem);
substrate: 6,8-difluoro-4-methylumbelliferyl phosphate (DiFMUP) (Invitrogen);
activating peptide: IRS1_pY1172(dPEG8)pY1222 (IRS1) (BPS Bioscience);
terminator: bpv(phen) (bpv) (Abcam).
SHP2 concentration: 0.5 nM;
DiFMUP concentration: 200 μM;
IRS-1 concentration: 0.5 μM;
bpv concentration: 160 μM;
buffer systems: 60 mM Hepes pH 7.2; 75 mM NaCl; 75 mM KCl; 0.05% surfactant P20; 1 mM EDTA; 5 mM DTT;
incubation duration of compound and enzyme: 60 minutes;
reaction time of enzyme and substrate: 30 minutes;
parameters for microplate reader: BMG PHERAstar fluorescence microplate reader at an excitation wavelength of 340 nm and an emission wavelength of 450 nm.
Test group: A mixture of the test compound and the phosphatase SHP2 together with the activating peptide IRS-1 were incubated in the buffer system at room temperature for 60 minutes. The substrate DiFMUP was added to initiate the reaction and incubated at room temperature for 30 minutes. Thereafter, bpv was added to terminate the reaction. The reaction plate was placed in the microplate reader, and the fluorescence intensities of the wells in the plate were measured using an endpoint assay.
Negative group: The experimental method for the negative group was the same as that for the test group, except that the test compound was substituted with 0.05% aqueous solution of DMSO.
Blank group: The experimental method for the blank group was the same as that for the test group, except that the test compound was substituted with 0.05% aqueous solution of DMSO and that SHP2 was not added.
The relative inhibitory activity was calculated for the test group at each concentration based on the following equation: inhibition rate (%)=100%−(the fluorescence intensity of the test group−the fluorescence intensity of the blank group)/(the fluorescence intensity of the negative group−the fluorescence intensity of the blank group)×100%. The half maximal inhibitory concentration (IC50) of the compound was calculated by fitting the curve according to the four-parameter logistic model.

pIC50: −log10 of the molar value. Bounds are passed on as bounds.

For orientation: pIC50 means the IC50 on a negative log10 scale, so that one unit is a factor of ten. The term IC50 denotes the point on the concentration scale where inhibition reaches its midpoint.

T1 sequence (Q12809 whole entry): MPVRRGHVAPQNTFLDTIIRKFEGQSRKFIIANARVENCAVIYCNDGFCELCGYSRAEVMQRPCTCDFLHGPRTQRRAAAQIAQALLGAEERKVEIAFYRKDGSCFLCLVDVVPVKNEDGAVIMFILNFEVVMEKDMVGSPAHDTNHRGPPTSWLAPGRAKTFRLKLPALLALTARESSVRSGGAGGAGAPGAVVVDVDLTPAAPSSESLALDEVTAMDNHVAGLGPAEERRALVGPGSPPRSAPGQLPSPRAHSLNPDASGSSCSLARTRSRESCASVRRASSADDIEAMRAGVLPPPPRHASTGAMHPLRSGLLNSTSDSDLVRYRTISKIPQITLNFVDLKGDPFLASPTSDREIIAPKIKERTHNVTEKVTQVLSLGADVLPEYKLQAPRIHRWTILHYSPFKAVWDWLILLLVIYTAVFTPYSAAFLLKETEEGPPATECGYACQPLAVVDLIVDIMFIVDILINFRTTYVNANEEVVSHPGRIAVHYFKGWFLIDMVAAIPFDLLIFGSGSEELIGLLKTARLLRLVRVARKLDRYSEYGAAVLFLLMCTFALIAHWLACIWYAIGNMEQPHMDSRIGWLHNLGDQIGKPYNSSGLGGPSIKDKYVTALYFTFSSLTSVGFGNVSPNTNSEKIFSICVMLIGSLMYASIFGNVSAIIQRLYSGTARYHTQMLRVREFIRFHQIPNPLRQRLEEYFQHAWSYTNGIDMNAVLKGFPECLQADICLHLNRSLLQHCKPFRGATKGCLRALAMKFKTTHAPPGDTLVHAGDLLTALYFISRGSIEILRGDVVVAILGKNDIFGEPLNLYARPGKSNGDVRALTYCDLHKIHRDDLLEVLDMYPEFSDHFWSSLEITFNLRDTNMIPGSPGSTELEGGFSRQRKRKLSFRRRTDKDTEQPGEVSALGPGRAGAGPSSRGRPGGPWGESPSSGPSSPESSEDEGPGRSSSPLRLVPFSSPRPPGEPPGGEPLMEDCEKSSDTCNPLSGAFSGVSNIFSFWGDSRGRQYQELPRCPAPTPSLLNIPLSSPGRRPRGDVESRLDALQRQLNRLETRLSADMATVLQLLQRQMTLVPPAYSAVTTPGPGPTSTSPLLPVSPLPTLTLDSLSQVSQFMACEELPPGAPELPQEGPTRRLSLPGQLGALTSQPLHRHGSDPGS

Turning to `N[C@@H]1COCC12CCN(c1ncc(Sc3ccnc(N4CCCC4CO)c3Cl)nc1CO)CC2` (stereo partly drawn) [Example 7, (3-((S)-4-amino-2-oxa-8-azaspiro[4.5]decan-8-yl)-6-(3-chloro-2-(2-(hydroxymethyl)pyrrolidin-1-yl)pyridin-4-ylthio)pyrazin-2-yl)methanol], the pIC50 in experiment [1] is 6.11; in experiment [2] it was under 5.00. Besides, the IC50 in experiment [3] was found to be 4.6 nM.
Regarding `C[C@@H]1OCC2(CCN(c3ncc(Sc4ccnc(N5CC(C(C)(C)C#N)C5)c4Cl)nc3CO)CC2)[C@@H]1N` [Example 30, 2-(1-(4-(5-((3S,4S)-4-amino-3-methyl-2-oxa-8-azaspiro[4.5]decan-8-yl)-6-(hydroxymethyl)pyrazin-2-ylthio)-3-chloropyridin-2-yl)azetidin-3-yl)-2-methylpropanenitrile], the pIC50 in experiment [2] was under 5.00. In experiment [3], the IC50 amounted to 4 nM.
Consider `C[C@@H]1OCC2(CCN(c3ncc(Sc4ccnc(N5CCCC5CO)c4Cl)nc3CF)CC2)[C@@H]1N` (stereo partly drawn) [Example 4, (1-(4-(5-((3S,4S)-4-amino-3-methyl-2-oxa-8-azaspiro[4.5]decan-8-yl)-6-(fluoromethyl)pyrazin-2-ylthio)-3-chloropyridin-2-yl)pyrrolidin-2-yl)methanol], for which the pIC50 in experiment [1] was 6.77; in experiment [2] it was under 5.00. Besides, the IC50 in experiment [3] is 4.1 nM.
For `C[C@@H]1OCC2(CCN(c3ncc(Sc4ccnc(N5CC[C@H]5CO)c4Cl)nc3CO)CC2)[C@@H]1N` [Example 9, (3-((3S,4S)-4-amino-3-methyl-2-oxa-8-azaspiro[4.5]decan-8-yl)-6-(3-chloro-2-((S)-2-(hydroxymethyl)azetidin-1-yl)pyridin-4-ylthio)pyrazin-2-yl)methanol], in that order: 6.66, under 5.00 and 1.3 nM.
Turning to `C[C@@H]1OCC2(CCN(c3ncc(Sc4ccnc(N5CCCC5CC#N)c4Cl)nc3CO)CC2)[C@@H]1N` (stereo partly drawn) [Example 18, 2-(1-(4-(5-((3S,4S)-4-amino-3-methyl-2-oxa-8-azaspiro[4.5]decan-8-yl)-6-(hydroxymethyl)pyrazin-2-ylthio)-3-chloropyridin-2-yl)pyrrolidin-2-yl)acetonitrile], the pIC50 in experiment [1] is 6.62; in experiment [2] it was under 5.00. Besides, the IC50 in experiment [3] is 1.9 nM.
Turning to `C[C@@H]1OCC2(CCN(c3ncc(Sc4ccnc(N5CC(F)(CO)C5)c4Cl)nc3CO)CC2)[C@@H]1N` [Example 39, (3-((3S,4S)-4-amino-3-methyl-2-oxa-8-azaspiro[4.5]decan-8-yl)-6-(3-chloro-2-(3-fluoro-3-(hydroxymethyl)azetidin-1-yl)pyridin-4-ylthio)pyrazin-2-yl)methanol], the pIC50 in experiment [1] was 7.70; in experiment [2] it was under 5.00. Also, in experiment [3], the IC50 turned out to be 1.4 nM.
